According to ChEMBL document CHEMBL5725743, “Benzamide imidazopyrazine Btk inhibitors” (2018):

Target: Tyrosine-protein kinase BTK (Homo sapiens, UniProt Q06187)
Test: Btk Enzyme Activity Assay: BTK enzymatic activity was determined with the LANCE (Lanthanide Chelate Excite) TR-FRET (Time-resolved fluorescence resonance energy transfer) assay. […] Phosphorylation reactions were allowed to proceed for 120 minutes. […] After 60 minutes incubation with detection reagents, reaction plates were read on a PerkinElmer EnVision plate reader using standard TR-FRET protocol. […] IC50 values were determined by 4 parameter robust fit of TR-FRET ratio values vs. (Log10)) compound concentrations.

Tyrosine-protein kinase BTK, sequence (Q06187 whole entry): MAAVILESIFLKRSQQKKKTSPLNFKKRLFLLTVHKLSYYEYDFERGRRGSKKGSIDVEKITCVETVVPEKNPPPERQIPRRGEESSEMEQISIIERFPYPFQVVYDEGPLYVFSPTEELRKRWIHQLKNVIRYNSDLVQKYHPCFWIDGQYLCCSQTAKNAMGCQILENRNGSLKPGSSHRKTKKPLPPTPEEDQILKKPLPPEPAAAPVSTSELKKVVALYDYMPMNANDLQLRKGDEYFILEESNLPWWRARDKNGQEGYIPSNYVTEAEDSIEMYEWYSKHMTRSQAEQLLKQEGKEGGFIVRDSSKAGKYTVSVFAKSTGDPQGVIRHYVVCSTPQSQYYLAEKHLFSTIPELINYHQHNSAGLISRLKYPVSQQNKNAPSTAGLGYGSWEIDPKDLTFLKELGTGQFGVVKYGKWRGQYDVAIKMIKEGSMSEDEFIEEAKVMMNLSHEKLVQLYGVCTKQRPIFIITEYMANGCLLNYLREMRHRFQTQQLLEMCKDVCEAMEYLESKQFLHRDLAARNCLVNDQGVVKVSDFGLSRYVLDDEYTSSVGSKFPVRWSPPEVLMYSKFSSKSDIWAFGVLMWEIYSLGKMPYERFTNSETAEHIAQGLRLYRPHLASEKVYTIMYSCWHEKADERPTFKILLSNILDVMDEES

IC50: 0.16 nM
Compound: Nc1nccn2c([C@@H]3CC[C@@H](CC(=O)O)C3)nc(-c3ccc(C(=O)Nc4cc(C(F)(F)F)ccn4)cc3)c12
